Results published in patent publication US20020193320A1, “C-2 modified erythromycin derivatives” (priority 1999, published 2002).

Key:
Test in all cases: In vitro antibacterial activity, agar dilution MIC
Type in all cases: cell-based
[1] = tested on: Nocardia Asteroides ATCC 99700; set-up: unit not given here; conditions: code VV, BHI agar, 35-37° C., 20 to 24 hours
Method: (§1) Representative compounds of the present invention were assayed in vitro for antibacterial activity as follows: Twelve petri dishes containing successive aqueous dilutions of the test compound mixed with 10 mL of sterilized Brain Heart Infusion (BHI) agar (Difco 0418-01-5) were prepared. Each plate was inoculated with 1:100 (or 1:10 for slow-growing strains, such as Micrococcus and Streptococcus) dilutions of up to 32 different microorganisms, using a Steers replicator block. The inoculated plates were incubated at 35-37° C. for 20 to 24 hours. In addition, a control plate, using BHI agar containing no test compound, was prepared and incubated at the beginning and end of each test.
(§2) An additional plate containing a compound having known susceptibility patterns for the organisms being tested and belonging to the same antibiotic class as the test compound was also prepared and incubated as a further control, as well as to provide test-to-test comparability.
(§3) After incubation, each plate was visually inspected. The minimum inhibitory concentration (MIC) was defined as the lowest concentration of drug yielding no growth, a slight haze, or sparsely isolated colonies on the inoculum spot as compared to the growth control.

[2] = tested on: Streptococcus bovis A-5169; set-up: unit not given here; conditions: code JJ, BHI agar, 35-37° C., 20 to 24 hours
Method: as §1, §2, §3

[3] = tested on: Staphylococcus aureus A-5177; set-up: unit not given here; conditions: code BB, BHI agar, 35-37° C., 20 to 24 hours
Method: as §1, §2, §3

[4] = tested on: Streptococcus pyogenes PIU 2548; set-up: unit not given here; conditions: code NN, BHI agar, 35-37° C., 20 to 24 hours
Method: as §1, §2, §3

[5] = tested on: Streptococcus pyogenes 930; set-up: unit not given here; conditions: code MM, BHI agar, 35-37° C., 20 to 24 hours
Method: as §1, §2, §3

[6] = tested on: Escherichia coli DC-2; set-up: unit not given here; conditions: code SS, BHI agar, 35-37° C., 20 to 24 hours
Method: as §1, §2, §3

[7] = tested on: Mycobacterium smegmatis ATCC 114; set-up: unit not given here; conditions: code UU, BHI agar, 35-37° C., 20 to 24 hours
Method: as §1, §2, §3

[8] = tested on: Staphylococcus epidermidis 3519; set-up: unit not given here; conditions: code HH, BHI agar, 35-37° C., 20 to 24 hours
Method: as §1, §2, §3

[9] = tested on: Staphylococcus aureus 1775; set-up: unit not given here; conditions: code GG, BHI agar, 35-37° C., 20 to 24 hours
Method: as §1, §2, §3

[10] = tested on: Escherichia coli SS; set-up: unit not given here; conditions: code RR, BHI agar, 35-37° C., 20 to 24 hours
Method: as §1, §2, §3

[11] = tested on: Staphylococcus aureus ATCC 6538P; set-up: unit not given here; conditions: code AA, BHI agar, 35-37° C., 20 to 24 hours
Method: as §1, §2, §3

[12] = tested on: Candida albicans CCH 442; set-up: unit not given here; conditions: code TT, BHI agar, 35-37° C., 20 to 24 hours
Method: as §1, §2, §3

[13] = tested on: Streptococcus agalactiae CMX 508; set-up: unit not given here; conditions: code KK, BHI agar, 35-37° C., 20 to 24 hours
Method: as §1, §2, §3

[14] = tested on: Staphylococcus aureus NCTC 10649M; set-up: unit not given here; conditions: code EE, BHI agar, 35-37° C., 20 to 24 hours
Method: as §1, §2, §3

[15] = tested on: Enterococcus faecium ATCC X043; set-up: unit not given here; conditions: code II, BHI agar, 35-37° C., 20 to 24 hours
Method: as §1, §2, §3

[16] = tested on: Micrococcus luteus ATCC 9341; set-up: unit not given here; conditions: code OO, BHI agar, 35-37° C., 20 to 24 hours
Method: as §1, §2, §3

[17] = tested on: Escherichia coli JUHL; set-up: unit not given here; conditions: code QQ, BHI agar, 35-37° C., 20 to 24 hours
Method: as §1, §2, §3

[18] = tested on: Staphylococcus aureus A-5278; set-up: unit not given here; conditions: code CC, BHI agar, 35-37° C., 20 to 24 hours
Method: as §1, §2, §3

[19] = tested on: Staphylococcus aureus CMX 553; set-up: unit not given here; conditions: code FF, BHI agar, 35-37° C., 20 to 24 hours
Method: as §1, §2, §3

[20] = tested on: Staphylococcus aureus CMX 642A; set-up: unit not given here; conditions: code DD, BHI agar, 35-37° C., 20 to 24 hours
Method: as §1, §2, §3

[21] = tested on: Streptococcus Pneumonia 5649; conditions: code ZZA (code list: ZA), 35-37° C., 20 to 24 hours
Method: as §1, §2, §3

[22] = tested on: Haemophilis Influenzae DILL AMP R; conditions: code WW, 35-37° C., 20 to 24 hours
Method: as §1, §2, §3

[23] = tested on: Streptococcus pyogenes EES61; conditions: code LL, BHI agar, 35-37° C., 20 to 24 hours
Method: as §1, §2, §3

[24] = tested on: Streptococcus Pneumonia GYR 1171; conditions: code YY, 35-37° C., 20 to 24 hours
Method: as §1, §2, §3

[25] = tested on: Micrococcus luteus ATCC 4698; conditions: code PP, BHI agar, 35-37° C., 20 to 24 hours
Method: as §1, §2, §3

[26] = tested on: Streptococcus Pneumonia 5979; conditions: code ZZ, 35-37° C., 20 to 24 hours
Method: as §1, §2, §3

[27] = tested on: Streptococcus Pneumonia ATCC 6303; conditions: code XX, 35-37° C., 20 to 24 hours
Method: as §1, §2, §3

Compound	Antibacterial Activity (MIC) [1]	Antibacterial Activity (MIC) [2]	Antibacterial Activity (MIC) [3]	Antibacterial Activity (MIC) [4]	Antibacterial Activity (MIC) [5]	Antibacterial Activity (MIC) [6]	Antibacterial Activity (MIC) [7]	Antibacterial Activity (MIC) [8]	Antibacterial Activity (MIC) [9]	Antibacterial Activity (MIC) [10]	Antibacterial Activity (MIC) [11]	Antibacterial Activity (MIC) [12]	Antibacterial Activity (MIC) [13]	Antibacterial Activity (MIC) [14]	Antibacterial Activity (MIC) [15]	Antibacterial Activity (MIC) [16]	Antibacterial Activity (MIC) [17]	Antibacterial Activity (MIC) [18]	Antibacterial Activity (MIC) [19]	Antibacterial Activity (MIC) [20]	further results
CCC1OC(=O)C(C)(CC=Cc2ccccc2)C(=O)C(C)C(OC2OC(C)CC(N(C)C)C2O)C(C)(OC)CC(C)C(=O)C(C)C2NC(=O)OC12C (stereo not drawn) [Example 1, Compound of formula (II): R^a is CH3, R^b is H, Y and Z together are O, T is —NH—, R is —CH2CH═CH-(phenyl)]	25	12.5	25	12.5	50	>100	25	50	100	50	25	100	12.5	50	25	3.1	>100	100	50	25	Antibacterial Activity (MIC) [21]: 16; Antibacterial Activity (MIC) [22]: >128; Antibacterial Activity (MIC) [23]: 12.5; Antibacterial Activity (MIC) [24]: 4; Antibacterial Activity (MIC) [25]: 6.2; Antibacterial Activity (MIC) [26]: 64; Antibacterial Activity (MIC) [27]: 8
C#CCOC1(C)CC(C)C(=O)C(C)C2NC(=O)OC2(C)C(CC)OC(=O)C(C)(CC=Cc2ccccc2)C(=O)C(C)C1OC1OC(C)CC(N(C)C)C1O (stereo not drawn) [Example 9, Compound of formula (II): R^a is —CH2C≡CH, R^b is H, Y and Z together are O, T is —NH—, R is —CH2CH≡CH—(phenyl)]	1.56	0.78	3.1	3.1	50	>100	12.5	6.2	100	6.2	3.1	>100	1.56	12.5	3.1	1.56	>100	>100	3.1	3.1	Antibacterial Activity (MIC) [21]: 8; Antibacterial Activity (MIC) [22]: >64; Antibacterial Activity (MIC) [23]: 1.56; Antibacterial Activity (MIC) [24]: 1; Antibacterial Activity (MIC) [25]: 3.1; Antibacterial Activity (MIC) [26]: 64; Antibacterial Activity (MIC) [27]: 1
C=CCC1(C)C(=O)OC(CC)C2(C)OC(=O)NC2C(C)C(=O)C(C)CC(C)(OCC=Cc2cnc3ccccc3c2)C(OC2OC(C)CC(N(C)C)C2O)C(C)C1=O (stereo not drawn) [Example 4, Compound of formula (II): R^a is —CH2CH═CH—(3-quinolinyl), R^b is H, Y and Z together are O, T is —NH—, R is —CH2CH═CH2]	0.1	0.05	0.39	0.78	12.5	>100	3.1	0.39	>100	3.1	0.78	>100	0.2	0.78	0.2	0.1	>100	>100	0.39	0.78	Antibacterial Activity (MIC) [21]: 2; Antibacterial Activity (MIC) [22]: 16; Antibacterial Activity (MIC) [23]: 0.1; Antibacterial Activity (MIC) [24]: 0.25; Antibacterial Activity (MIC) [25]: 0.78; Antibacterial Activity (MIC) [26]: 64; Antibacterial Activity (MIC) [27]: 0.25
